One series can be described thus: Water solubility. Format: physicochemical.
A short description of series [1]: Long wavelength molar extinction coefficient. It is filed as physicochemical. The following applies: in methanol, at 660 nm. How it is done:
Lysyl-chlorin-p6 was prepared by treatment of purpurin 18 methyl ester (obtained from chlorophyll-a) with lysine in a mixture of dichloromethane, pyridine, and water. It was purified using a Waters Associate's C18 SepPak cartridge. Reversed phase analytical high-performance liquid chromatography (HPLC) indicated the product to consist of 60% lysyl chlorin-p6 and 40% chlorin-p6 based on equal absorbance at 403 nm. This mixture is termed "LCP". The long wavelength molar extinction coefficient of lysyl-chlorin-p6 in methanol was 39,600 at 660 nm.

A further series can be described thus: Stability of compounds. It is filed as physicochemical. The following applies: decomposes to purpurin-18 methyl ester (3) and polar baseline material.
The test system of the next series is tumor. The following applies: cited from earlier work.
The test system of the next series is normal skin. The following applies: comparable drug and light doses; cited from earlier work.
A further series has as its system cell killing. The following applies: cited from earlier work; for activity in photodynamic therapy: in vitro conditions; for photosensitized cell killing: low intensity of red light.

Data on 5 compounds can be found in patent US5330741A, “Long-wavelength water soluble chlorin photosensitizers useful for photodynamic therapy and diagnosis of tumors” (The Regents of the University of California, priority 1992, dated 1994).

Read-outs that look alike come from different tables or passages of the source.

In the case of `C=Cc1c(C)c2cc3nc(c(C(=O)O)c4[nH]c(cc5nc(cc1[nH]2)C(C)=C5CC)c(C)c4C(=O)NCCCCC(N)C(=O)O)[C@@H](CCC(=O)OC)[C@@H]3C` (stereo partly shown) [(II), chlorin-p6 6-N^ε -lysylamide-7-methyl ester], the solubility in water result in the series “Water solubility” was “well soluble in water”. For the same compound, the “long wavelength molar extinction coefficient” value in series [1] is listed as 39,600.
For the compound `C=Cc1c(C)c2cc3nc(c(C(=O)O)c4[nH]c(cc5nc(cc1[nH]2)C(C)=C5CC)c(C)c4C(=O)NCCCC)[C@@H](CCC(=O)OC)[C@@H]3C` [(VII), chlorin-p6-6-N-butylamide-7-methyl ester], the stability result in “Stability of compounds” is “not very stable and readily decomposed”.
On to `C=Cc1c(C)c2cc3nc(c(CC(=O)N[C@@H](CC(=O)[O-])C(=O)[O-])c4[nH]c(cc5nc(cc1[nH]2)C(C)=C5CC)c(C)c4C(=O)[O-])[C@@H](CCC(=O)[O-])[C@@H]3C.[Na+].[Na+].[Na+].[Na+]` [MACE, mono-L-aspartyl-chlorin e6], for which the tumor cures result in the series with tumor (24 hours between drug administration and light) is recorded as “ineffective at inducing tumor cures”; in the series with tumor (administered 4-6 hours prior to light exposure), “PDT induced tumor cures were obtained”. For the same compound, the “level of PDT induced normal skin damage vs HpD” value with normal skin is reported as “significantly lesser”.
For the compound `C=Cc1c(C)c2cc3nc(c4c5[nH]c(cc6nc(cc1[nH]2)C(C)=C6CC)c(C)c5C(=O)OC4=O)[C@@H](CCC(=O)O)[C@@H]3C` [Purpurin-18], in the series with cell killing, the “activity in photodynamic therapy” value is on record as “active in photodynamic therapy” and the photosensitized cell killing entry is “potent photosensitizers which promote cell killing”.
As to `C=Cc1c(C)c2cc3nc(c(C(=O)O)c4[nH]c(cc5nc(cc1[nH]2)C(C)=C5CC)c(C)c4C(=O)O)[C@@H](CCC(=O)O)[C@@H]3C` [chlorin-p6], in the series on cell killing, the “activity in photodynamic therapy” value is given as “active in photodynamic therapy” and the photosensitized cell killing result was “potent photosensitizers which promote cell killing”.
